9 compounds from ChEMBL document CHEMBL1201862, “PubChem BioAssay data set” (2004) can be followed below.

SMILES strings stand for the structures.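 Exposure lasted 48 hours, with cells grown in 96-well plates and compounds tested at five concentrations. GI50 marks 50% less growth.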 Activity calls are given as the source filed them. Rule as the data show it: active = GI50 up to about 1.1 µM and inactive = higher. A value given as a limit tells only on which side of the number the result lay.

Among the test systems are IGROV-1; NCI-H460; U-251; NCI-H522; OVCAR-3; HCC 2998; COLO 205; CAKI-1; HL-60; UACC-257; HCT-15; A498; HOP-62; CCRF-CEM; K562; NCI-H23; SF-539; UO-31; MDA-MB-435.
Common to all, as to assay: growth of human tumour cells (NCI), 48 h

For the compound `[O-][S+]1C(=c2ccc(=C3Sc4ccccc4S3)cc2)Sc2ccccc21` (stereo not given), the GI50 is 38.5 µM (inactive) in the test with IGROV-1; 18.2 µM (inactive) with NCI-H460; 14.9 µM (inactive) in the test on U-251; > 100 µM (inactive) in the test on NCI-H522; > 100 µM (inactive) in the test with OVCAR-3; 16 µM (inactive) in the test on HCC 2998. Further, the GI50 is > 100 µM (inactive) in the test on COLO 205; > 52.7 µM (inactive) in the test with CAKI-1; > 100 µM (inactive) in the test with HL-60; > 92.5 µM (inactive) in the test on UACC-257; 15.3 µM in the test with HCT-15; 15.8 µM (inactive) in the test on A498. In addition, the GI50 is 17.7 µM (inactive) in the test with HOP-62; > 94.4 µM (inactive) with CCRF-CEM; > 66.7 µM (inactive) in the test on K562; 16.3 µM (inactive) with NCI-H23; 15.6 µM (inactive) with SF-539; 17.2 µM (inactive) with UO-31.
On to `O=C(CCc1nnc(S)[nH]1)Nc1cc(Cl)ccc1Cl`, for which the GI50 in the test with IGROV-1, in the test on NCI-H460, with U-251, in the test with NCI-H522, with OVCAR-3 and in the test with HCC 2998 was > 100 µM (inactive) in each case. In addition, the GI50 was > 100 µM (inactive) in the test on COLO 205; > 100 µM (inactive) with CAKI-1; > 100 µM (inactive) with HL-60; > 100 µM (inactive) in the test on UACC-257; more than 100 µM with HCT-15; > 100 µM (inactive) in the test on A498. Moreover, the GI50 with HOP-62, in the test on CCRF-CEM, with K562, in the test on NCI-H23, in the test on SF-539 and in the test on UO-31 was > 100 µM (inactive) each time.
Regarding `COc1cc(C2c3cc4c(cc3[C@H](NC(=O)c3cccs3)C3COC(=O)[C@H]23)OCO4)cc(OC)c1OC` (stereo not given in full), the GI50 in the test with IGROV-1 was 0.0147 µM (active); in the test with NCI-H460, 0.0172 µM (active); in the test with U-251, < 0.0148 µM (active); in the test on NCI-H522, < 0.01 µM (active); in the test with OVCAR-3, 0.0361 µM (active); in the test on HCC 2998, < 0.0181 µM (active). Moreover, the GI50 in the test with COLO 205 was 0.0109 µM (active); in the test with HL-60, < 0.01 µM (active); with HCT-15, less than 0.0214 µM; in the test on A498 it was 0.012 µM (active); in the test with HOP-62, < 0.0144 µM (active); in the test on CCRF-CEM, < 0.0179 µM (active). Also, the GI50 in the test with K562 is < 0.0156 µM (active); in the test on NCI-H23 it was < 0.0143 µM (active); with SF-539 it was < 0.01 µM (active); with UO-31 it was 0.0811 µM (active).
On to `CC(C)(C)N/N=C(\C(=O)Nc1nnc(S)[nH]1)C1C(=O)Nc2ccccc2[S+]1[O-]` (stereo not given), for which the GI50 in the test with IGROV-1, in the test with NCI-H460, with U-251, in the test on NCI-H522, in the test on OVCAR-3 and in the test with HCC 2998 was > 100 µM (inactive) in each case. The GI50 was > 100 µM (inactive) with COLO 205; > 100 µM (inactive) in the test on CAKI-1; > 100 µM (inactive) in the test with HL-60; > 100 µM (inactive) with UACC-257; more than 100 µM in the test on HCT-15; > 100 µM (inactive) with A498. For the same compound, the GI50 in the test on HOP-62, with CCRF-CEM, in the test on K562, in the test with NCI-H23, in the test on SF-539 and in the test on UO-31 was > 100 µM (inactive) in each case.
As for `O=S1(=O)OCCOS(=O)(=O)C1S(=O)(=O)c1cccc2ccccc12`, the GI50 in the test on IGROV-1 was > 100 µM (inactive); in the test with NCI-H460, 54.6 µM (inactive); in the test on U-251 it was > 100 µM (inactive); with OVCAR-3 it was > 100 µM (inactive); in the test with HCC 2998 it was > 100 µM (inactive); with COLO 205, > 100 µM (inactive). Besides, the GI50 in the test on MDA-MB-435 was > 100 µM (inactive); in the test with CAKI-1 it was > 100 µM (inactive); in the test with HL-60 it was 68.5 µM (inactive); in the test on UACC-257, > 100 µM (inactive); in the test on HCT-15 it was more than 100 µM; in the test with HOP-62, > 100 µM (inactive). Besides, the GI50 in the test on CCRF-CEM is > 100 µM (inactive); in the test on K562, 41.4 µM (inactive); with NCI-H23, > 100 µM (inactive); with UO-31 it was > 100 µM (inactive).
In the case of `C/C(O)=C1\CC2CN3CCc4c([nH]c5ccccc45)C3CC2CC1=O` (stereo not given), the GI50 is > 100 µM (inactive) with IGROV-1; > 100 µM (inactive) with NCI-H460; > 100 µM (inactive) with U-251; 65.6 µM (inactive) in the test on NCI-H522; 27.9 µM (inactive) in the test on OVCAR-3; 58.9 µM (inactive) in the test on HCC 2998. The GI50 with COLO 205 was > 100 µM (inactive); in the test with HL-60 it was 32.7 µM (inactive); with UACC-257, > 100 µM (inactive); with HCT-15, 45.4 µM; in the test with A498, > 100 µM (inactive); in the test on HOP-62, > 100 µM (inactive). The GI50 was 29.4 µM (inactive) with CCRF-CEM; 28.5 µM (inactive) with K562; 92 µM (inactive) in the test with NCI-H23; 75.2 µM (inactive) in the test on SF-539; 37.9 µM (inactive) in the test on UO-31.
As for `C[C@]12CCc3nonc3C1CC[C@@H]1C2CC[C@]2(C)NC(=O)CCC12` (stereo not given in full), the GI50 with IGROV-1, in the test with NCI-H460, in the test on U-251, with NCI-H522, in the test on OVCAR-3 and in the test on COLO 205 was > 100 µM (inactive) throughout. Besides, the GI50 with CAKI-1 was > 100 µM (inactive); in the test on HL-60, > 100 µM (inactive); in the test with UACC-257, > 100 µM (inactive); in the test with HCT-15, more than 100 µM; in the test with A498, > 100 µM (inactive); with HOP-62, > 100 µM (inactive). The GI50 in the test with CCRF-CEM, in the test with K562, in the test on NCI-H23, in the test on SF-539 and in the test with UO-31 was > 100 µM (inactive) each time.
For `O=C1c2ccccc2-c2ccccc2C(=O)C1(Br)Br`, the GI50 with IGROV-1 is 14 µM (inactive); in the test with NCI-H460, 19.1 µM (inactive); in the test with U-251, 15.8 µM (inactive); with NCI-H522 it was 2.15 µM (inactive); in the test on OVCAR-3 it was 14.1 µM (inactive); with HCC 2998 it was 18.2 µM (inactive). In addition, the GI50 in the test with COLO 205 is 8.24 µM (inactive); with CAKI-1 it was 5.87 µM (inactive); in the test on HL-60, 2.15 µM (inactive); with UACC-257 it was 10.7 µM (inactive); in the test with HCT-15 it was 12.4 µM; with A498 it was 16.6 µM (inactive). Moreover, the GI50 in the test with HOP-62 was 18.2 µM (inactive); in the test on CCRF-CEM, 2.52 µM (inactive); in the test on K562, 4.13 µM (inactive); in the test with NCI-H23, 13.4 µM (inactive); in the test with SF-539 it was 9.51 µM (inactive); in the test with UO-31, 14.4 µM (inactive).
Turning to `C=CCC1(C#N)C(=S)NC2=C(C(=O)CC(C)(C)C2)C1c1ccccc1` (stereo not given), the GI50 with IGROV-1 was 55.1 µM (inactive); in the test on U-251 it was 30.9 µM (inactive); with COLO 205 it was > 100 µM (inactive); with MDA-MB-435, 33 µM (inactive); in the test on CAKI-1 it was 74.3 µM (inactive); in the test with HL-60, > 100 µM (inactive). The GI50 in the test with HCT-15 is 70.1 µM; with CCRF-CEM it was 83.6 µM (inactive); in the test with K562 it was 82.2 µM (inactive); in the test on NCI-H23 it was 39.9 µM (inactive); with SF-539, 77.8 µM (inactive); in the test with UO-31 it was 36.4 µM (inactive).
